1 compound from patent US20060029743A1, “Wood preservatives and methods of wood preservation” (priority 2004, published 2006) can be followed below.

In brackets after ≈: the same amount, converted by molar mass. Where only a bound is given, the exact number is not on record here.

The subject of one experiment is Antrodia vaillantii. The experiment in a line: 6-well plate assay, minimal inhibitory concentration. Format: cell-based. Conditions: Fibroporia vaillantii, 168 h; 6-well agar plate; lowest concentration with no growth after seven days; read-out: Effectiveness at Inhibiting Wood-Rotting Fungi, BR3 (minimal inhibitory concentration). As for the experimental part: (§1) The minimal inhibitory concentration of fungicides against eight fungi was determined in 6-well microtiter plates. Minimal inhibitory concentration is defined as the lowest concentration at which no fungus growth is evident after seven days. A group of eight fungi were used in a screen to identify potential active ingredients to preserve wood. The eight fungi, their classification, and the growth media used to culture them are listed below:
(§2) Growth media were purchased from Difco (from Beckton Dickinson and Co., Sparks, Md.). The growth media were added to water to 2% w/v and autoclaved at 121° C. for 30 min. Autoclaved media were allowed to cool down to ˜50° C. Test chemicals were dissolved in DMSO (dimethyl sulfoxide) individually at 10 mg/mL to generate stock solutions. An appropriate amount of a stock solution was then added to the appropriate growth medium at 50° C. to make up the test media containing various concentrations of individual test chemicals. 10 mL of the medium was added to each well of a 6-well plate and allowed to solidify at room temperature. For each plate, the first well had no chemical, and the remaining five wells contained a particular test chemical at five different concentrations. Eight such plates were prepared for each chemical, using the eight media listed above for the eight test organisms.
(§3) After the media solidified and cooled, a plug (˜2 mm×2 mm) of agar growth medium with fresh grown mycelium from the appropriate fungal culture was used to inoculate each well. The plate was placed in an incubator, and the growth of the fungus monitored. After 4 to 7 days, the growth was scored manually.

In a further experiment the test system is Chaetomium globosum. Described as above. Format: cell-based. As to conditions: Chaetomium globosum, 168 h; 6-well agar plate; lowest concentration with no growth after seven days; read-out: Effectiveness at Inhibiting Wood-Rotting Fungi, SR1 (minimal inhibitory concentration). As for the experimental part: as §1, §2, §3
The next experiment deals with Gloeophyllum trabeum. The experiment is described as above. It is filed as cell-based. Conditions: Gloeophyllum trabeum, 168 h; 6-well agar plate; lowest concentration with no growth after seven days; read-out: Effectiveness at Inhibiting Wood-Rotting Fungi, BR2 (minimal inhibitory concentration). The method, then: as §1, §2, §3
Experiment [1] deals with Irpex lacteus. Described as above. It is filed as cell-based. Conditions: Irpex lacteus, 168 h; 6-well agar plate; lowest concentration with no growth after seven days; read-out: Effectiveness at Inhibiting Wood-Rotting Fungi, WR2 (minimal inhibitory concentration). As for the experimental part:
as §1, §2, §3

The test system of experiment [2] is Phanerochaete chrysosporium. The description is as above. Format: cell-based. As to conditions: Phanerodontia chrysosporium, 168 h; 6-well agar plate; lowest concentration with no growth after seven days; read-out: Effectiveness at Inhibiting Wood-Rotting Fungi, WR3 (minimal inhibitory concentration). The method, then:
as §1, §2, §3

Experiment [3] concerns Postia placenta. The description is as above. Format: cell-based. As to conditions: Rhodonia placenta, 168 h; 6-well agar plate; lowest concentration with no growth after seven days; read-out: Effectiveness at Inhibiting Wood-Rotting Fungi, BR1 (minimal inhibitory concentration). As for the experimental part:
as §1, §2, §3

A further experiment relates to Trametes versicolor. The experiment is described as above. Format: cell-based. As to conditions: Trametes versicolor, 168 h; 6-well agar plate; lowest concentration with no growth after seven days; read-out: Effectiveness at Inhibiting Wood-Rotting Fungi, WR1 (minimal inhibitory concentration). The method, then: as §1, §2, §3
Experiment [4] deals with Postia placenta. The experiment in a line: Soil block test (AWPA E10-01, modified), SYP blocks. As to conditions: for Average weight loss: 3 months. The method, then:
(§4) For the soil block tests, the protocol listed as AWPA (American Wood Preservers' Association) standard E10-01 was used, with some modifications that are noted.
(§5) For pressure treatment, wood blocks (¾ inch cubes) were made from Southern yellow pine (SYP) or birch dried at about 40° C. to constant weight, and weighed before pressure treatment. In a typical experiment, blocks were submerged in an appropriate treatment solution in an autoclave. A vacuum of 10 to 15 inch Hg (380 to 510 torr) was applied for 30 min, followed by a pressure of 150 psi (1.034 MPa) for 1 hr. The treatment solution was then removed and a vacuum of 10 to 15 inch Hg (380 to 510 torr) was applied again to the blocks for 15 min. Excess treatment solution on the surface was allowed to evaporate (30 min in a laboratory fume hood) before the blocks were either weighed or stored in a sealed plastic bag and weighed at a later time.
(§6) For the soil block test, wood blocks were conditioned in a vented incubator at 40° C. until they reached a constant weight (16 to 18 hrs). Blocks were then autoclaved at 100° C. for 30 min under dry cycle. Soil samples with a water holding capacity of 40% were used for these tests. 60 mL of water and 92-100 g of soil were added into a 228 mL French square bottle, and autoclaved at 121° C. for 30 min. A feeder strip, ⅛″×1⅛″×1⅜″ (˜0.31 cm×2.86 cm×3.49 cm), birch for birch blocks and SYP for SYP blocks, was placed on the top of the soil. A testing block was placed on top of the feeder strip and the bottle contents inoculated with an agar strip (˜3 mm×30 mm) containing freshly grown fungus (listed in the results). For brown rot fungi (Postia placenta), SYP blocks and feeder strips were used. For white rot (Irpex lacteus), birch blocks and feeder strips were used. The bottles were loosely capped and allowed to incubate at ˜75% humidity and 25° C. for 3 months. Then the blocks were removed from the bottles and dried at 40° C. to constant weight in a vented incubator (16-18 hr). The weight of each block was determined and the percent weight loss was calculated.
(§7) Blocks were allowed to age for a week in the fume hood after treatment. Half of the blocks were subjected to leaching with water for an additional week before undergoing the soil block test. For leaching, blocks were placed in a beaker and 30 mL of water per block were added. Blocks were allowed to incubate at room temperature under constant stirring, with daily change of water for one week.
SYP blocks were pressure-treated with this solution as above (Example 2). After treatment, the blocks were divided into groups and allowed to age in the hood for either two days or 14 days. The blocks were then placed in a beaker and submerged under water (50 mL water per block), under constant stirring for two weeks. […]

For experiment [5], the system named is Irpex lacteus. The experiment in a line: Soil block test (AWPA E10-01, modified), birch blocks. As to conditions: for Average weight loss: 3 months. The method, then:
as §4, §5, §6, §7

As for `C[Si](Cn1cncn1)(c1ccc(F)cc1)c1ccc(F)cc1` [Flusilazole], the MIC in the experiment on Antrodia vaillantii was under 1 µg/mL; in the experiment on Chaetomium globosum, under 1 µg/mL; with Gloeophyllum trabeum, 1 to 100 µg/mL (≈ 3.17 to 317 µM); in the experiment on Irpex lacteus [1] it was 1 to 100 µg/mL (≈ 3.17 to 317 µM); in experiment [2], 1 to 100 µg/mL (≈ 3.17 to 317 µM); in the experiment on Postia placenta [3], under 1 µg/mL. Besides, the MIC in the experiment with Trametes versicolor was under 1 µg/mL. Also, the Average weight loss in the experiment on Postia placenta [4] (SYP blocks pressure-treated with 50 ppm solution in 5% acetic acid) is listed as 29%; in the experiment with Postia placenta [4] (SYP blocks pressure-treated with 100 ppm solution in 5% acetic acid), 19%; with Postia placenta [4] (SYP blocks pressure-treated with 200 ppm solution in 5% acetic acid), 3.3%; with Irpex lacteus [5] (birch blocks pressure-treated with 50 ppm solution in 5% acetic acid), 19.5%; with Irpex lacteus [5] (birch blocks pressure-treated with 100 ppm solution in 5% acetic acid), 21.7%; with Irpex lacteus [5] (birch blocks pressure-treated with 200 ppm solution in 5% acetic acid) it was 11%. In addition, the “Protection against decay (in words)” value in the experiment with Postia placenta [4] (SYP blocks, 200 ppm flusilazole solution) is “protected against decay”; in the experiment with Irpex lacteus [5] (birch blocks, 200 ppm flusilazole solution), “significantly protected from decay”.
